From paper PMC5095062, “The novel choline kinase inhibitor ICL-CCIC-0019 reprograms cellular metabolism and inhibits cancer cell growth” (Oncotarget, 2016)
Read-outs that look alike come from different tables or passages of the source.

Assays:
[1] = target: recombinant human Δ49N CHKA2 (Homo sapiens, UniProt P35790); settings: cited from earlier work
HCT116 cells [2] = assay: Mitochondrial respiration (Seahorse XF24); format: cell-based, human; settings: 10 μM
Description: Extracellular acidification and oxygen consumption rates (ECAR and OCR) were measured in a XF24 extracellular flux analyzer (Seahorse XF24 Extra Cellular Flux Analyzer, North Billerica, MA, USA). Basic XF assay medium was prepared as previously described supplemented with glucose, and the pH adjusted to 7.4 at 37°C. Indicated final concentrations of compounds were obtained by injecting appropriate amounts of compounds dissolved in DMSO or water and diluted in XF assay medium into ports. […] Indicated data points were obtained after 3 min mixing and 2 min wait, followed by 3 min of data collection. Data were normalized to the basal values.

[3] = Plasma metabolite analysis by LC-MS; format: in vivo, BALB/c mice; settings: pooled 2-hour plasma samples
Description: Plasma pharmacokinetic parameters of ICL-CCIC-0019 were established in female BALB/c mice aged 6–8 weeks (Harlan). Mice were intraperitoneally (i.p.) or perorally (p.o.) administered a single dose of 10 mg/kg and blood collected by cardiac puncture after 5, 15, 30 minutes and 1, 2, 4, 6 and 24 h. For tissue pharmacokinetic studies, HCT116 xenograft bearing mice were administered 10 mg/kg ICL-CCIC-0019 i.p. and blood collected after 5 minutes, 2, 6 and 24 h. Plasma was obtained by centrifugation at 1000 × g for 10 minutes. Samples were snap-frozen and stored at −80°C prior to analysis. Analysis was carried out by Cyprotex Inc. using liquid chromatography–mass spectrometry (LC–MS). For analysis of plasma metabolites, 2-hour samples of tissue pharmacokinetic studies were pooled.

HCT116 cells [4] = assay: [3H]acetate uptake; format: cell-based, human
Description: Enzymatic kinase activity, [^3H]choline to [^3H]PCho conversion and growth inhibition assays was conducted as previously described. [^3H]choline incorporation into soluble and lipid fractions was determined by a pulse-chase experiment. HCT116 cells were seeded at a density of 3 × 10^5 cell per well into 12-well plates and incubated overnight. Cells were treated with 1 or 10 μM ICL-CCIC-0019 for 1 h and pulsed in presence of inhibitor with 18.5 kBq/mL [^3H]choline chloride in 500 μL for 1 additional h. Cells were briefly rinsed with RPMI and incubated with fresh, non-radioactive medium for 6 h. Metabolites were extracted as described elsewhere, but additionally the radioactivity of the choline-containing and chloroform (lipid-containing) fractions was measured. Uptake of radiolabeled metabolite-tracers was measured as described elsewhere. Antiproliferative activity was measured after 72 h continuous exposure to inhibitors by sulforhodamine B (SRB) assay as described elsewhere. Apoptosis was determined using Caspase 3/7 Glo assay (Promega) according to the manufacturer's instructions.

HCT116 cells [5] = assay: Reactive oxygen species assay; format: cell-based, human; settings: 10 μM
Description: For ROS measurements, cells were seeded in 96-well plates and treated with indicated ICL-CCIC-0019 (10 μM), pro- and antioxidants (0.25% H2O2 and 5 mM N-acetyl cysteine, NAC; all from Sigma-Aldrich) for indicated times. C400 (Life Technologies) was added at a final concentration of 50 μM and incubated at 37°C for 15 minutes and fluorescence quantified.

HCT116 cells [6] = assay: Cell membrane integrity assay (LDH release); format: cell-based, human; settings: 1–25 μM, 4 h
Description: Cell membrane integrity was assessed using a fluorescent kit measuring lactate dehydrogenase (LDH) release (CytoTox-ONETM, Promega) according to manufacturer's instructions.

HCT116 xenografts = assay: Kinetic modeling of [18F]-D4-FCH PET data; format: in vivo, BALB/c nude mice
Source text: We employed kinetic modeling to further characterize ICL-CCIC-0019-mediated choline kinase inhibition in vivo. Whereas normalized tissue uptake values reflect tracer concentration in a 3-dimensional region of interest, kinetic modeling accounts for tissue uptake relative to plasma. A two-tissue irreversible compartmental model, as previously reported, was employed with the hypothesis that k3 would represent the rate by which the tracer is phosphorylated by choline kinase, (Supplementary Figure S2C). Although this enzymatic reaction is in principle reversible, it was assumed that the high dependency of cancer cells to incorporate choline made it unlikely that catalytic hydrolysis of PCho prevails. Best fits and more physiological parameters were obtained with a 3k (excluding k4) instead of a 4k model. […] In all examined tissues, the blood volume Vb decreased initially after treatment (Supplementary Figure S2D). These perfusion deficits were more pronounced and persistent in tumor compared to liver and kidney. To rule out that these kinetic changes are solely due to choline transport inhibition, we analyzed the choline metabolites of [^18F]-D4-FCH in HCT116 cells treated with ICL-CCIC-0019. As expected for CHKA inhibition, ICL-CCIC-0019 decreased the [^18F]-D4-PCho peak, changing the relative ratio of [^18F]-D4-Cho:[^18F]-D4-PCho from 72:28 in the vehicle control to 87:13 in the treatment group (Supplementary Figure S2E–S2F).
Kinetic analysis of PET data was performed applying a standard two-tissue irreversible compartmental model described in detail elsewhere.

[7] = test system: NCI-60 panel of cell lines; assay: NCI-60 screen (whole panel); format: cell-based; settings: Homo sapiens
Source text: The compound was then screened against a larger panel of cancer cell lines of diverse histopathologic origin, the NCI-60 screen. […] Mining of publicly available Cancer Genome Atlas (TCGA) expression data identified CHKA amplification and/or mRNA upregulation in 11% of breast, 5–10% of lung, 8% of ovarian, 7% of colorectal and 5% of prostate cancers. Furthermore, CHKA mRNA expression is higher in multiple tumor types compared to normal tissue (Supplementary Figure S1D). The gene was rarely mutated or deleted (0–2.5% mutation rate and < 1% deletion among all tested cancer types). The consistently high expression in a wide variety of tumor types highlights the relevance of CHKA in malignancy and role as a therapeutic target.

recombinant human Δ49N CHKA2, sequence (P35790 50-457 limits assumed, stated change not applied): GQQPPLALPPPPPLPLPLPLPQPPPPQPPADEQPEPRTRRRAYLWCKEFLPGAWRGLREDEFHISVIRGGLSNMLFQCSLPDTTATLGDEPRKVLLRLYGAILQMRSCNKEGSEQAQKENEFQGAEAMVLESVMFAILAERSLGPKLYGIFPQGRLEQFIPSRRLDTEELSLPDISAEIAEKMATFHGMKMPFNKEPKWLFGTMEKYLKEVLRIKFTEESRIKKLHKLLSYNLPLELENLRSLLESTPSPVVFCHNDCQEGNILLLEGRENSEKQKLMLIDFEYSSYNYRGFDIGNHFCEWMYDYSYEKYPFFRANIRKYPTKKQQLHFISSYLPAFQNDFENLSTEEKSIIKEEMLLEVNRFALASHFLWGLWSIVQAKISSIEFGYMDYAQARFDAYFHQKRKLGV

CN(C)c1cc[n+](CCCCCCCCCCCC[n+]2ccc(N(C)C)cc2)cc1 [ICL-CCIC-0019]
mode of CHKA inhibition [1]: competitive with choline, but not ATP
mitochondrial respiration immediately after adding inhibitor (acute effect) (HCT116 cells [2]): decreased mitochondrial respiration
metabolic stability in plasma [3]: metabolically stable
increase of acetate uptake (HCT116 cells [4]): 10 fold
formation of reactive oxygen species (HCT116 cells [5]): not accompanied by formation of reactive oxygen species
LDH concentration in the supernatant (HCT116 cells [6]): did not elevate LDH concentration
decrease of tumor K1 compared to control (HCT116 xenografts; 24 hours): 73%
decrease of tumor K1 compared to control (HCT116 xenografts; 48 hours): 75%
macro parameter Ki (net irreversible uptake rate) in tumor (HCT116 xenografts; 48 hours): significantly decreased
GI50 ([7]; read-out: GI50 range across all cell lines): 0.0389 to 16.2 µM
GI50 ([7]; read-out: median GI50 across all cell lines): 1.12 µM
